Legend:
[1] = Part I single-ascending-dose plasma pharmacokinetics (HPLC-MS/MS, noncompartmental); type: in vivo, human
Method: (§1) Pyragrel administration regimens are as follows: In the single-escalating-dose study (Part I), a total of 52 subjects are enrolled to receive one of three treatments (pyragrel, ozagrel, or placebo, diluted in 500 Ml normal saline) as a 3-h i.v. infusion. Six dose levels of pyragrel (30, 60,120, 180, 240, 300 mg) were intravenously infused to healthy subjects. Of the 12 subjects each at the first three dose groups (30, 60, and 120 mg), 8 received pyragrel, 2 received ozagrel (80 mg), and 2 received placebo. Eight subjects were assigned as 4/2/2 for pyragrel, ozagrel, and placebo at the 180 mg level. Only four subjects were enrolled at the 240- and 300-mg group each; all received pyragrel. […] In the saline-volume-changed study (Part II), the safety and pharmacokinetics of pyragrel were assessed by decreasing the volume of dilution saline. Four subjects received a single 3 h infusion of pyragrel 240 mg diluted in 250 ml saline instead of the 500 ml used in Part I. Blood samples were collected at multiple time points before and after the initiation of the infusion in Part I and Part II; 15 blood samples were predetermined as follows: before drug administration (time 0), 0.5, 1, 2, 3 (4 samples collected during infusion), 3.25, 3.5, 4, 5, 7, 9, 11, 15, 24, and 48 h (10 samples collected post infusion) after the initiation of the infusion. In the multiple-dose study (Part III), 12 subjects received a single 3 h infusion of 180 mg pyragrel (diluted in 250 ml saline) on Day 1 and Day 6 and twice 3 h infusion of 180 mg pyragrel from Day 2 to 5; 14 blood samples were collected on Day 1 and Day 6 before drug administration (0 h), 0.5, 1, 2, 3, 3.25, 3.5, 4, 5, 7, 9, 11, 15, 24 h after the initiation of the infusion; moreover, 5 ml cubital vein blood was collected each time right before pyragrel infusion on Day 2 to Day 5. In the 3×3 crossover study (Part IV), 12 subjects were randomized to receive each of the three dosing groups (60, 120, or 240 mg) of pyragrel (diluted with 250 ml saline, 3 h infusion) per period, with a 7-day washout period between doses. Sixteen blood samples were collected as follows: before drug administration (0 h), 0.17, 0.35, 0.5, 1, 2, 3, 3.25, 3.5, 4, 5, 7, 9, 11, 15, and 24 h after the initiation of the infusion at each period. In the prolonged infusion study (Part V), four subjects received continuous 24 h infusion of pyragrel 360 mg (diluted in 600 ml saline); 19 blood samples were collected as follows: before drug administration (0 h), 0.25, 0.5, 1, 2, 4, 8, 12, 16, 20 (nine samples collected during administration), 24.25, 24.5, 25, 26, 28, 30, 32, 36, and 48 h after the initiation of the infusion (details shown in Figure 1 ). In all five cohorts, 5 ml of cubital vein blood was collected with a sodium heparin anticoagulant tube and centrifuged at 3000 r·min^-1. Each plasma sample was divided into two aliquots and stored at −20°C until further bioanalysis. […] Briefly, 10 µl of the extract drug from […] was injected onto a Zorbax EcLipse XDB C18 column (2.1 mm × 150 mm, 5 μm) (Agilent, USA) using isocratic elution with a mobile phase composed of methanol, water, and formic acid (65:35:0.1, v/v/v). Determination of the analytes was achieved by tandem-mass spectrometry with positive electrospray ionization.
(§2) Pharmacokinetic parameters were calculated using the noncompartmental model (NCA module), WinNonlin 6.1 (Pharsight Corporation, Mountain View, CA, USA). Statistical analysis was performed with SPSS 18. The actual dosing and sampling times were utilized in the analysis. Pharmacokinetic parameters were summarized by dose regimens using descriptive statistics, including n, mean, and the coefficient of variation (CV). For Tmax, only n, min, median, and max were reported.

[2] = Part III multiple-dose study, plasma pharmacokinetics; type: in vivo, human
Method: as §1, §2

[3] = Acute toxicity study in mice; type: in vivo
[4] = tested on: human umbilical vein endothelial cells (HUVEC); settings: in vitro; cited from earlier work
[5] = Part I, single 3-h i.v. infusion of pyragrel 30 mg, plasma, n=8, mean ± SD
[6] = Part I, single 3-h i.v. infusion of pyragrel 60 mg, plasma, n=8, mean ± SD
[7] = Part I, single 3-h i.v. infusion of pyragrel 120 mg, plasma, n=8, mean ± SD
[8] = Part I, single 3-h i.v. infusion of pyragrel 180 mg, plasma, n=4, mean ± SD
[9] = Part I, single 3-h i.v. infusion of pyragrel 240 mg, plasma, n=4, mean ± SD
[10] = Part I, single 3-h i.v. infusion of pyragrel 300 mg, plasma, n=4, mean ± SD
[11] = Part III, multiple dose, 3-h infusions of pyragrel 180 mg for 6 days, plasma, n=12
[12] = Part III, single dose, 3-h infusion of pyragrel 180 mg, plasma, n=12

SMILES: COc1cc(C=CC(=O)[O-])ccc1OCc1nc(C)c(C)nc1C.[Na+] [Pyragrel, sodium pyragrel]
- Pharmacokinetic process over the dose range ([1]; 30–300 mg dose range): linear
- Tmax ([1]; Part I, across all six dose groups (30-300 mg), 3 h infusion): about 3 h
- Plasma concentration remaining, fraction of Cmax ([1]; Part I, at 4 h after initiation of the 3 h infusion): 1/20
- AUCINF [1, 5]: 1,051.0 ± 185.8 h*µg·L^-1
- AUClast [1, 5]: 1,047.5 ± 182.7 h*µg·L^-1
- Cl [1, 5]: 29.26 ± 4.69 L/h
- Tmax [1, 5]: 2.75 ± 0.46 h
- Vz [1, 5]: 96.16 ± 31.87 L
- t1/2 [1, 5]: 2.39 ± 1.03 h
- AUCINF [1, 6]: 2,009.4 ± 235.97 h*µg·L^-1
- AUClast [1, 6]: 2,003.7 ± 235.9 h*µg·L^-1
- Cl [1, 6]: 30.23 ± 3.58 L/h
- Cmax [1, 6]: 711.8 ± 100.2 µg/L
- Tmax [1, 6]: 2.88 ± 0.35 h
- Vz [1, 6]: 203.0 ± 81.47 L
- t1/2 [1, 6]: 4.62 ± 1.69 h
- AUCINF [1, 7]: 4,300.5 ± 807.5 h*µg·L^-1
- AUClast [1, 7]: 4,287.2 ± 812.7 h*µg·L^-1
- Cl [1, 7]: 28.76 ± 5.26 L/h
- Cmax [1, 7]: 1,435.6 ± 319.5 µg·L^-1
- Tmax [1, 7]: 2.88 ± 0.35 h
- Vz [1, 7]: 278.0 ± 162.5 L
- t1/2 [1, 7]: 6.64 ± 3.53 h
- AUCINF [1, 8]: 7,390.5 ± 414.7 h*µg·L^-1
- AUClast [1, 8]: 7,376.5 ± 413.0 h*µg·L^-1
- Cl [1, 8]: 24.41 ± 1.41 L/h
- Cmax [1, 8]: 2,622.5 ± 439.9 µg·L^-1
- Tmax [1, 8]: 3.00 ± 0.00 h
- Vz [1, 8]: 334.4 ± 110.8 L
- t1/2 [1, 8]: 9.64 ± 3.58 h
- AUCINF [1, 9]: 9,224.3 ± 2,716.3 h*µg·L^-1
- AUClast [1, 9]: 9,194.7 ± 2,703.5 h*µg·L^-1
- Cl [1, 9]: 27.50 ± 6.80 L/h
- Cmax [1, 9]: 3,144.2 ± 931.2 µg·L^-1
- Tmax [1, 9]: 2.75 ± 0.50 h
- Vz [1, 9]: 573.6 ± 180.3 L
- t1/2 [1, 9]: 14.24 ± 1.66 h
- AUCINF [1, 10]: 9,315.3 ± 1,219.1 h*µg·L^-1
- AUClast [1, 10]: 9,301.4 ± 1,215.2 h*µg·L^-1
- Cl [1, 10]: 32.62 ± 4.29 L/h
- Cmax [1, 10]: 3,011.7 ± 303.2 µg·L^-1
- Tmax [1, 10]: 2.25 ± 0.50 h
- Vz [1, 10]: 454.6 ± 191.4 L
- t1/2 [1, 10]: 9.88 ± 4.26 h
- AUCINF [2, 11]: 6,939.5 ± 2,072.8 h*µg·L^-1
- AUCTAU [2, 11]: 6,854.5 ± 2,062.7 h*µg·L^-1
- AUClast [2, 11]: 6,909.9 ± 2066.8 h*µg·L^-1
- Cl [2, 11]: 28.49 ± 8.49 L/h
- Cmax [2, 11]: 2,447.8 ± 825.3 µg·L^-1
- Tmax [2, 11]: 2.42 ± 0.67 h
- t1/2 [2, 11]: 6.51 ± 2.73 h
- Cmin ([2]; Part III, pyragrel 180 mg, printed in column Single dose, footnote a: steady-state trough concentration, n=12): 4.22 ± 2.26^a µg·L^-1
- Cavg ([2]; Part III, pyragrel 180 mg, printed in column Single dose, footnote b: steady-state peak concentration, n=12): 571.2 ± 171.9^b µg·L^-1
- AUCINF [2, 12]: 6,680.3 ± 1,668.0 h*µg·L^-1
- AUClast [2, 12]: 6,663.3 ± 1665.7 h*µg·L^-1
- Cl [2, 12]: 28.85 ± 8.75 L/h
- Tmax [2, 12]: 2.83 ± 0.39 h
- Vz [2, 12]: 226.0 ± 141.7 L
- t1/2 [2, 12]: 5.12 ± 1.91 h
- Cmax ([2]; Part III, single dose, 3-h infusion of pyragrel 180 mg, plasma, n=12, footnote c: steady-state average concentration): 2,311.9 ± 514.4^c µg·L^-1
- Accumulation on repeated dose, in words ([2]; repeated dose of pyragrel 180 mg for 6 days (once- or twice-daily dosing)): no accumulation
- LD50 [3]: 929.7 mg/kg
- Effect against inflammatory induced HUVEC injury [4]: significant protective effects
